Test results taken from the METLIN SMRT retention time set (Domingo-Almenara et al. 2019).

Assay: gradient 5% acetonitrile 3 min, to 50% in 2 min, to 85% in 15 min, held 3 min, 100 µL/min
Details: column: Zorbax Extend-C18 2.1 x 50 mm; eluents: water / acetonitrile, 0.1% formic acid
How it was run: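 In both positive and negative ionization mode, a quadrupole time-of-flight mass spectrometer coupled to HPLC analyzed pure standards run in mixtures of ~100 molecules. The Zorbax Extend-C18 column (2.1 × 50 mm, 1.8 μm) was operated at 100 μL/min with water and acetonitrile, each containing 0.1% formic acid. The dead volume was 40 μL and the dwell volume 900 μL. Retention time came from adduct peaks that were computationally picked and individually inspected by hand.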

SMILES	RP-LC retention time
CCOc1cc(=O)n2c(c1C(=O)NCC1CCCCC1)CCCCC2	772 s
CC(C)(C)CC(C)(C)NC(=O)C1CCN(C(=O)c2ccccc2F)CC1	920 s
O=C(CSc1ccc(F)cc1)Nc1ccc2c(c1)CC(=O)N2	646 s
O=C(NCc1ccccc1)c1cn(Cc2ccc(NC(=O)C3CCCCC3)cc2)cn1	749 s
O=C(CCn1nnc2cc(-c3noc(COc4ccc(F)cc4)n3)ccc21)N1CCOCC1	823 s
CCN1CCN(CCCNC(=O)Cc2c(C(=O)O)c(C)cn2CC)CC1	563 s
COc1ccc(N2CCN(C(=O)[C@@H]3[C@H](c4cc(OC)c(OC)c(OC)c4)c4cc5c(cc4[C@H](O)[C@H]3CO)OCO5)CC2)cc1	698 s
N#Cc1cccc(NC(=O)C2CCN(S(=O)(=O)c3ccc4[nH]c(=O)ccc4c3)CC2)c1	706 s
CC(C(=O)NCCCN1CCOCC1)C1CCN(C(=O)c2cc3cc(Cl)ccc3[nH]2)CC1 (centres undefined)	648 s
CCC(C)NC(=O)CN1C(=O)CCc2cc(S(=O)(=O)N3CCC(C)CC3)ccc21 (centres undefined)	858 s
O=c1n(Cc2ccccc2Cl)nc2ccc(S(=O)(=O)N3CCCCC3)cn12	979 s
O=C1CCc2cc(NC(=O)c3cncc(Br)c3)ccc2N1	649 s
O=C(C1CCCN(c2ncnc3c2nc2n3CCCCC2)C1)N(Cc1ccco1)C1CCCC1 (centres undefined)	950 s
CC(=O)N1CCc2sc(C(=O)N3CCN(c4cccc(Cl)c4)CC3)cc2C1	840 s
CCOc1ccc(N2CC(c3nnc(NC(=O)Cc4ccc(Cl)cc4)o3)CC2=O)cc1 (centres undefined)	796 s
COc1ccc(/C=C/c2nc3sc4c(c3c(=O)o2)CCCC4)cc1OC	1250 s
COCCN1C(=O)c2ccccc2C(C(=O)N2CCN(c3ccccn3)CC2)C1c1ccc(F)cc1 (centres undefined)	619 s
O=C(NC1CCCCCC1)C1CCN(C(=O)C2Sc3ccccc3NC2=O)CC1 (centres undefined)	613 s
Cc1ccc(C)c(N2CCN(C(=O)c3ccc4c(c3)NC(=O)C3CCCCN43)CC2)c1 (centres undefined)	1050 s
COc1cc(Cl)c(C)cc1NC(=O)c1c(C)cc(C)cc1C	1150 s

Continued, values first:

RP-LC retention time	SMILES
1080 s	Cc1nc2cc(-c3noc(/C=C/c4cccs4)n3)ccc2o1
831 s	Cn1cnc2c(C(=O)N3CCc4ccccc4C3)nn(-c3ccccc3)c2c1=O
1280 s	CCN(C(=O)c1cccs1)c1nc(-c2ccc(C)cc2)cs1
678 s	COc1ccc(-c2cc(=O)n(CCNC(=O)c3c(F)cccc3F)cn2)cc1
831 s	O=C(NCCc1c[nH]c2ccc(F)cc12)c1ccc(F)cc1
819 s	CCCCN(CC)c1nc(-c2ccccc2F)nc2ccccc12
652 s	COC(=O)c1ccc(NC(=O)N2CCC(n3cnc4cccnc43)CC2)cc1
822 s	CC(=O)c1cccc(NC(=O)Cn2nc3c4cc(-c5ccccc5)nn4ccn3c2=O)c1
906 s	Cc1ccc(N2CCC(NC(=O)Nc3cccc(C)c3C)C2=O)cc1C (centres undefined)
900 s	CCCn1cc(CCNC(=O)Nc2cccc(Cl)c2F)c2cccnc21
616 s	Cc1cccc(NC(=O)N2CCC3(CC2)NC(=O)c2ccccc2N3C)c1
973 s	CCOc1cccc(-c2noc(Cn3ccn(Cc4ccc(Cl)cc4)c(=O)c3=O)n2)c1
774 s	O=C(Cn1c(=O)c2cccn2c2ccc(F)cc21)NCCc1ccco1
957 s	O=C(NCc1csc(-c2cccs2)n1)C1CCN(S(=O)(=O)c2ccc(Cl)s2)CC1
765 s	CN1C(=O)C2(CCN(C(=O)c3cccc(F)c3)C2)c2ccccc21 (centres undefined)
734 s	O=C(N[C@H](Cc1ccccc1)C(=O)NCc1cscn1)c1ccccc1F
928 s	CCn1c(=O)c(N2CCN(C(=O)Nc3cccc(SC)c3)CC2)nc2ccccc21
963 s	N#CC1=CN(c2ccc(C(F)(F)F)cc2)c2ccccc2S1(=O)=O
722 s	CN1c2ccccc2C(=O)NC12CCN(C(=O)NCc1cccc(F)c1)CC2
652 s	Cc1c(Cl)cccc1NC(=O)c1ccc(-n2ccnc2)nn1
688 s	COc1ccc(C(=O)CC2(O)C(=O)Nc3c(C)cccc32)cc1OC (centres undefined)
990 s	Cc1nn(CC(=O)NCc2ccco2)c(=O)c2c(-n3cccc3)n(-c3ccc(Cl)cc3)nc12
653 s	CCOc1ccc(NC(=O)N(Cc2cccs2)C2CCN(CC)CC2)cc1
847 s	Cc1nnc(C(=O)Nc2cccc(C(=O)NCCc3c[nH]c4ccc(Cl)cc34)c2)s1
